# In PubChem BioAssay (NCI):
#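 Cells were grown in 96-well plates and exposed to each compound for 48 hours at five concentrations; endpoints were interpolated linearly between bracketing concentrations, or set to the highest concentration if not reached. Abbreviation: GI50, concentration required for 50% inhibition of growth. At the TGI there is no net growth.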
# Columns and labels:
# Assay in all cases: DTP human tumour cell line panel, 48 h
# HOP-62 NSCLC = test system: HOP-62 NSCLC
# TK-10 renal = test system: TK-10 renal
# HCT-116 colon = test system: HCT-116 colon
# HCT-15 colon = test system: HCT-15 colon
# SW-620 colon = test system: SW-620 colon
# OVCAR-8 ovarian = test system: OVCAR-8 ovarian
# SK-MEL-5 melanoma = test system: SK-MEL-5 melanoma
# SN12C renal = test system: SN12C renal
# PC-3 prostate = test system: PC-3 prostate
# HOP-92 NSCLC = test system: HOP-92 NSCLC
SMILES,TGI (HOP-62 NSCLC),TGI (TK-10 renal),TGI (HCT-116 colon),TGI (HCT-15 colon),TGI (SW-620 colon),TGI (OVCAR-8 ovarian),TGI (SK-MEL-5 melanoma),TGI (SN12C renal),TGI (PC-3 prostate),TGI (HOP-92 NSCLC),GI50 (HOP-62 NSCLC),GI50 (SN12C renal)
N#CCCC1(CCC#N)S(=O)(=O)OCCOS1(=O)=O,> 100 µM,> 100 µM,> 100 µM,> 100 µM,> 100 µM,> 100 µM,> 100 µM,> 100 µM,> 100 µM,,,
CCC1(c2ccc(OC)c(OC)c2)CCN(S(=O)(=O)c2ccc(C)cc2)C1 (stereo not drawn),> 100 µM,> 100 µM,> 100 µM,> 100 µM,> 100 µM,,> 100 µM,> 100 µM,> 100 µM,,,
COc1ccc2nc3c4c(nccc4c2c1)-c1ncccc1C3=O,0.402 µM,0.613 µM,0.467 µM,0.069 µM,0.567 µM,6.55 µM,0.111 µM,0.298 µM,3.14 µM,12.3 µM,,
COC(=O)C(=O)C(C(=O)OC)C(=O)C(=O)Nc1cc(Cl)c(C)cc1S(=O)(=O)O (stereo not drawn),> 100 µM,> 100 µM,> 100 µM,> 100 µM,> 100 µM,> 100 µM,> 100 µM,> 100 µM,,,,
O=c1[nH][nH]c(=O)n1Cc1ccccc1,,> 100 µM,> 100 µM,> 100 µM,> 100 µM,> 100 µM,> 100 µM,> 100 µM,> 100 µM,,,
Cc1cc(C)c(NS(=O)c2ccc(Cl)cc2)c(C)c1 (stereo not drawn),> 100 µM,> 100 µM,> 100 µM,> 100 µM,> 100 µM,> 100 µM,,> 100 µM,> 100 µM,> 100 µM,,
COC(=O)c1cc(/C=C/C(=O)Cc2ccccc2)cn1S(=O)(=O)c1ccccc1,> 100 µM,> 100 µM,> 100 µM,> 100 µM,,> 100 µM,> 100 µM,> 100 µM,> 100 µM,,,
C1=NN2C(c3ccccc3)=NOC2C2C(c3ccccc3)=NOC12 (stereo not drawn),> 100 µM,> 100 µM,> 100 µM,> 100 µM,,> 100 µM,> 100 µM,,> 100 µM,,,
Cc1c2c(n3c(nc4ccccc43)c1C#N)N(c1ccc(F)cc1)CC2,> 100 µM,> 100 µM,> 100 µM,> 100 µM,> 100 µM,> 100 µM,> 100 µM,> 100 µM,> 100 µM,> 100 µM,,
Cc1ccc(S(=O)(=O)c2ccc(C)cc2[N+](=O)[O-])c([N+](=O)[O-])c1,> 100 µM,> 100 µM,> 100 µM,> 100 µM,> 100 µM,> 100 µM,> 100 µM,> 100 µM,,,,
CC(C)N(C(C)C)S(=O)(=O)CC12CCC(C/C1=N\O)C2 (stereo not drawn),> 100 µM,> 100 µM,> 100 µM,> 100 µM,> 100 µM,> 100 µM,> 100 µM,> 100 µM,> 100 µM,,,
Cc1c(-c2coc(-c3ccc([N+](=O)[O-])cc3)n2)c(=O)n(-c2ccccc2)n1C,> 100 µM,> 100 µM,> 100 µM,> 100 µM,,> 100 µM,> 100 µM,> 100 µM,,> 100 µM,,
COP12(OC)NC(=O)OC1(C(F)(F)F)c1ccccc1O2 (stereo not drawn),,> 100 µM,> 100 µM,> 100 µM,,> 100 µM,> 100 µM,> 100 µM,,,,
CC(C)CCNC(=O)c1ccc(CNC(=O)/C=C/c2ccc3ccccc3c2)cc1,> 100 µM,,> 100 µM,> 100 µM,> 100 µM,> 100 µM,> 100 µM,> 100 µM,> 100 µM,> 100 µM,,
CCOC(=O)c1c2ccccc2n2c(=O)n(-c3ccc(OC)cc3)nnc12,63 µM,> 84.5 µM,> 100 µM,> 100 µM,> 100 µM,97.1 µM,> 100 µM,> 100 µM,> 66.1 µM,> 65.7 µM,,
O=C(O)C12C3CCC(C3)C1(C(=O)O)C1CCC2C1 (stereo not drawn),> 100 µM,> 100 µM,> 100 µM,> 100 µM,34.2 µM,> 100 µM,> 100 µM,> 100 µM,,> 100 µM,,
N#Cc1ccc(C2OCC3CC=CCC3CO2)cc1 (stereo not drawn),> 100 µM,,> 100 µM,> 100 µM,> 100 µM,> 100 µM,49 µM,> 100 µM,,,,
Nc1c(F)c(F)c2c(c1F)N(CCCCCl)c1ccccc1S2,> 100 µM,> 100 µM,> 100 µM,> 100 µM,> 100 µM,,> 100 µM,> 100 µM,> 100 µM,> 100 µM,,
CN1C(=O)C(=Cc2ccc(Br)cc2)C(=O)N(C)C1=O,> 100 µM,> 100 µM,> 100 µM,> 100 µM,> 100 µM,,> 100 µM,,> 100 µM,> 100 µM,,
COc1ccc(/C=C2/SC(=Nc3ccccc3)N(NC(=O)Cc3ccccc3)C2=O)cc1,> 100 µM,> 100 µM,> 100 µM,> 100 µM,> 100 µM,> 100 µM,> 100 µM,> 100 µM,,> 100 µM,,
O=c1cccccc1[O-].O=c1cccccc1[O-].O=c1cccccc1[O-].[Nd+3],95.3 µM,> 100 µM,68.4 µM,> 100 µM,> 100 µM,90.7 µM,> 100 µM,> 100 µM,,> 100 µM,32 µM,35.6 µM
Cc1cc2c(cc1Cl)SC(NNCCO)=NS2(=O)=O,> 100 µM,> 100 µM,> 100 µM,> 100 µM,> 100 µM,> 100 µM,> 100 µM,,> 100 µM,> 100 µM,,
COc1ccccc1N1CCN(S(=O)(=O)c2ccc(Cl)cc2)C1=N,> 100 µM,> 100 µM,> 100 µM,> 100 µM,> 100 µM,> 100 µM,> 100 µM,> 100 µM,> 100 µM,,,
CN1CCS(=O)(=O)NC(Cc2ccccc2)C(=O)N2CCCC2C1=O (stereo not drawn),> 100 µM,> 100 µM,> 100 µM,> 100 µM,> 100 µM,> 100 µM,> 100 µM,> 100 µM,,,,

SMILES,TGI (HOP-62 NSCLC),TGI (TK-10 renal),TGI (HCT-116 colon),TGI (HCT-15 colon),TGI (SW-620 colon),TGI (OVCAR-8 ovarian),TGI (SK-MEL-5 melanoma),TGI (SN12C renal),TGI (PC-3 prostate),TGI (HOP-92 NSCLC),GI50 (HOP-62 NSCLC),GI50 (SN12C renal)
COc1ccccc1/C=C1\CCC(Cc2ccccc2)(CN(C)C)C1=O (stereo not drawn),> 69 µM,> 77.7 µM,39.4 µM,14.4 µM,35.2 µM,22.9 µM,11.9 µM,50.3 µM,,66.2 µM,,
CC(CC(=O)N1C2CC3CCC2(CS1(=O)=O)C3(C)C)[Si](C)(C)C (stereo not drawn),> 100 µM,> 100 µM,> 100 µM,> 100 µM,> 100 µM,> 100 µM,> 100 µM,> 100 µM,> 100 µM,,,
COC(C)=NCCC1=CCCCC1,> 100 µM,> 100 µM,> 100 µM,> 100 µM,> 100 µM,> 100 µM,> 100 µM,,> 100 µM,> 100 µM,,
c1ccc2cc(C3NCCc4[nH]cnc43)ccc2c1 (stereo not drawn),> 100 µM,82.1 µM,> 100 µM,> 100 µM,> 100 µM,> 100 µM,45.3 µM,> 100 µM,,> 100 µM,,
CCC1=CC(OCc2ccccc2)C(CCN(Cc2ccccc2)C(=O)OCc2ccccc2)C1 (stereo not drawn),37.1 µM,30.9 µM,,29.1 µM,37 µM,32.8 µM,37.8 µM,,42.9 µM,27 µM,,
O=[N+]([O-])C(C(Cl)=C(Cl)Cl)=C(N1CCCCC1)N1CCCCC1,> 100 µM,> 100 µM,> 100 µM,> 100 µM,> 100 µM,> 100 µM,> 100 µM,> 100 µM,> 100 µM,,,
CC(=O)N1C(c2[nH]c3ccccc3c2Cc2ccccc2)CCN1c1ccccc1 (stereo not drawn),> 10 µM,> 10 µM,> 10 µM,> 10 µM,> 10 µM,> 10 µM,> 10 µM,> 10 µM,> 10 µM,,,
O=C1CSC(c2ccccc2)N1c1ccc(-c2ccc(-n3c(-c4ccccc4)nc4ccccc4c3=O)cc2)cc1 (stereo not drawn),> 100 µM,> 100 µM,,> 100 µM,> 100 µM,> 100 µM,> 100 µM,> 100 µM,> 100 µM,> 100 µM,,
O=C1C(Cl)C(c2ccc(O)cc2)N1n1cnc2ccccc2c1=O (stereo not drawn),> 100 µM,> 100 µM,33 µM,> 100 µM,47.8 µM,26 µM,> 100 µM,> 100 µM,,> 100 µM,,
N#CCCC(C#N)(C#N)CCC#N,> 100 µM,> 100 µM,> 100 µM,> 100 µM,> 100 µM,> 100 µM,> 100 µM,> 100 µM,,,,
CN1N=C(c2ccncc2)OC1c1cccc(F)c1 (stereo not drawn),> 100 µM,> 100 µM,> 100 µM,> 100 µM,> 100 µM,> 100 µM,> 100 µM,> 100 µM,> 100 µM,,,
CC(=Nc1ccc(Cl)cc1)c1ccncc1,> 100 µM,,> 100 µM,> 100 µM,> 100 µM,> 100 µM,> 100 µM,> 100 µM,> 100 µM,> 100 µM,,
Cc1ccccc1N(CCC#N)C1=NN(C(=O)CC(=O)Nc2ccc(Cl)cc2)C(c2ccccc2)C1 (stereo not drawn),> 100 µM,,> 100 µM,> 100 µM,> 100 µM,> 100 µM,> 100 µM,> 100 µM,,> 100 µM,,
COc1ccc(/C(C)=C2\CCCN(Cc3ccccc3)C2)cc1,33.6 µM,> 100 µM,,46.1 µM,36.1 µM,35.9 µM,36.8 µM,,62.7 µM,60.4 µM,,
Cc1n[nH]c(=O)n1/N=C/c1ccco1,> 100 µM,,> 100 µM,> 100 µM,> 100 µM,> 100 µM,,> 100 µM,> 100 µM,,,
COc1cc2ccnc(C#N)c2cc1OCc1ccccc1,> 100 µM,> 100 µM,> 100 µM,> 100 µM,> 100 µM,> 100 µM,> 100 µM,> 100 µM,,,,
Cn1c2ncccc2n2c(=O)cc(O)cc12,> 100 µM,> 100 µM,> 100 µM,> 100 µM,> 100 µM,> 100 µM,> 100 µM,,> 100 µM,81.4 µM,,
c1cc2c(cc1C1OCC3C(c4ccc5c(c4)OCO5)OCC13)OCO2 (stereo not drawn),> 100 µM,> 100 µM,> 100 µM,> 100 µM,> 100 µM,> 100 µM,83.7 µM,> 100 µM,,> 100 µM,,
CN1CCCS/C1=C1/SC(=S)N(c2ccccc2)C1=O,> 100 µM,> 100 µM,> 100 µM,> 100 µM,> 100 µM,> 100 µM,> 100 µM,> 100 µM,,> 100 µM,,
COc1ccc(S(=O)(=O)N/N=C(\C)CN2C(=O)c3ccccc3C2=O)cc1OC,> 100 µM,> 100 µM,> 100 µM,> 100 µM,> 100 µM,> 100 µM,> 100 µM,> 100 µM,,> 100 µM,,
CN(C)CC1(Cc2ccccc2)CC/C(=C\c2ccccc2)C1=O (stereo not drawn),> 100 µM,> 100 µM,> 100 µM,42.1 µM,60.3 µM,> 100 µM,64.3 µM,> 100 µM,,> 100 µM,,
O=C1CCC(=O)c2ccccc2N1,> 100 µM,> 100 µM,> 100 µM,> 100 µM,> 100 µM,> 100 µM,> 100 µM,> 100 µM,,> 100 µM,,
COc1cc(C2C(C(=O)NCc3ccccc3)=C(C)NC(C)=C2C(=O)NCc2ccccc2)ccc1O,,> 100 µM,> 100 µM,> 100 µM,> 100 µM,> 100 µM,> 100 µM,> 100 µM,,89.2 µM,,
COc1cc2c(cc1NC(=O)c1ccccc1)c1c(n2S(=O)(=O)c2ccccc2)CCN(S(=O)(=O)c2ccccc2)C1,> 100 µM,,> 100 µM,> 100 µM,> 100 µM,> 100 µM,> 100 µM,,> 100 µM,> 100 µM,,
